One molecule from paper PMC8322070, “A novel orally active HDAC6 inhibitor T-518 shows a therapeutic potential for Alzheimer’s disease and tauopathy in mice” (Scientific Reports, 2021) can be followed below.

For test [1], the system named is P301S tau Tg mice. Kind of test: Septohippocampal retrograde axonal transport of Fluoro-Gold in tauopathy model. The test is classed as in vivo, mouse. The conditions noted are these: 3 mg/kg daily for 2 weeks, 5-month-old P301S tau Tg mice. Here is the method: T-518, ACY-738, Ricolinostat, and Tubastatin A were synthesized in Takeda. For in vitro cellular experiments, the compounds were solubilized with DMSO and diluted in the culture medium at the indicated concentrations. For in vivo experiments, the compound was reconstituted in 0.5% methylcellulose and administered orally at the indicated doses. After administration, mouse hippocampus was isolated and homogenized in RIPA extraction buffer (50 mM Tris–HCl, 150 mM NaCl, 1% NP-40, 0.5% sodium deoxycholate, and 0.1% SDS, pH 8.0) supplemented with protease and phosphatase inhibitor cocktail (Thermo Fischer, Waltham, MA, USA). The homogenate was centrifuged at 10,000g for 15 min and the supernatant was taken as the RIPA-soluble fraction.
The integrity of retrograde axonal transport was evaluated by detecting the accumulation of Fluoro-Gold (Fluorochrome, Denver, CO) in the medial septal nucleus after injection into hippocampus (0.5 μL of 5% at AP − 2.3 mm, ML − 2.0 mm, and DV − 2.0 mm relative to bregma). Three days after injection, mice were anesthetized and transcardially perfused with PBS (pH 7.4) followed by 4% paraformaldehyde. […] Fluorescent cells in the medial septum region were counted with Image-Pro Plus software (version 4.5.0.24) (Media Cybernetics, Rockville, MD; https://www.mediacy.com/imageproplus).

For test [2], the target named is T1, human HDAC7 (Homo sapiens, UniProt Q8WUI4).
T1 construct: purchased SignalChem Pharmaceutical Inc
T1 sequence (Q8WUI4 1-952): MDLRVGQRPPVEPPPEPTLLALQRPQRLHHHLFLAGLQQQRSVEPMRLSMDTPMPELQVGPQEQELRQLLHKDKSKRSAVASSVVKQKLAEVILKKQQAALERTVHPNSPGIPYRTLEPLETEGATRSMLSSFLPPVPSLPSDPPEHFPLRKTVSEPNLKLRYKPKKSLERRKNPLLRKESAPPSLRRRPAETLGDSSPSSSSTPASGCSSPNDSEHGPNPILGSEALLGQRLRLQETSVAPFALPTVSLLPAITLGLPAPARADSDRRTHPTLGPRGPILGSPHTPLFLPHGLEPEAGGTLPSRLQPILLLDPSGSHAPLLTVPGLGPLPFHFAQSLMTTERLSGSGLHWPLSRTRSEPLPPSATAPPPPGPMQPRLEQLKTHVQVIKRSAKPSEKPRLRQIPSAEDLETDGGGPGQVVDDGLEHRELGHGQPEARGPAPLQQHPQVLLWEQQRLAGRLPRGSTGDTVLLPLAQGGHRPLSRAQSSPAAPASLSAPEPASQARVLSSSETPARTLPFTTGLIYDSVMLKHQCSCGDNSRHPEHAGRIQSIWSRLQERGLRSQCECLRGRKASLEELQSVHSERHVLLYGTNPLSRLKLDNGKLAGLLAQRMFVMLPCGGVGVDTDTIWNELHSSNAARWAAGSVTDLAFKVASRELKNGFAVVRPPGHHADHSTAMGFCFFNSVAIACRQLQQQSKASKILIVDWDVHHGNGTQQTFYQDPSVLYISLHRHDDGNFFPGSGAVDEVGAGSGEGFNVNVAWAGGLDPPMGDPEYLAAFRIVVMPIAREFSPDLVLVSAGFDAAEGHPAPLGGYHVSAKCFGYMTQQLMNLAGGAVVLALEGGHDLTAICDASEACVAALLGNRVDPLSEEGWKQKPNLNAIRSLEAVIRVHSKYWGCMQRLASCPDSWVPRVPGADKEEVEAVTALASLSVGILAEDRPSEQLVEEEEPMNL
Briefly: HDAC enzyme assay (HDAC-Glo class IIa), HDAC7. Type of test: biochemical. The conditions noted are these: concentrations up to 10 μM. Here is the method:
Recombinant HDAC6, HDAC7, HDAC1 were obtained from SignalChem Pharmaceutical Inc. (Richmond, BC, Canada), and recombinant human HDAC4 was prepared at Takeda pharmaceutical company. One μL of T-518 diluted with DMSO was added to 75 μL of assay buffer (24 mM Tris–HCl (pH 7.5), 135 mM NaCl, 0.35 mM KCl, 1 mM MgCl2, 0.01% Tween 20, 0.6 mM GSH) in 384 well plates. Two μL of diluted compounds were added to 384 well plates and 2 μL of recombinant HDAC enzymes was added and then centrifuged at 1000 rpm for 10 s. The final concentrations of each HDAC enzyme were as follows, human HDAC1, 170 pM; human HDAC6, […]; human HDAC4, 68 pM; human HDAC7, 13 pM. After incubation for 60 min at room temperature, 4 μL of HDAC-Glo reagent [HDAC-Glo I/II (Promega) for HDAC6 and HDAC1, HDAC-Glo class IIa (Promega) for HDAC4 and HDAC7] was added to start the reaction. After incubation for 20 min at room temperature, the luminescence was measured by Envision plate reader (PerkinElmer, Waltham, MA, USA). For experiments under the condition of 0 min preincubation, 4 μL of HDAC-Glo reagent was added at first to the 384 well plates including diluted compounds. […] After centrifugation at 1000 rpm for 10 s. and then incubation for 20 min at room temperature, the luminescence was measured by Envision. […] The inhibitory activity of T-518 was expressed as the value of IC50. […]

Consider `O=C1c2cc(-c3nnc(C(F)F)o3)cnc2CN1[C@@H]1CCCC[C@H]1NC(=O)C(F)(F)C(F)(F)F` [T-518, N-[(1R,2R)-2-{3-[5-(difluoromethyl)-1,3,4-oxadiazol-2-yl]-5-oxo-5H,6H,7H-pyrrolo[3,4-b]pyridin-6-yl}cyclohexyl]-2,2,3,3,3-pentafluoropropanamide], for which the “retrograde axonal transport of Fluoro-Gold from hippocampus to medial septal nucleus” value in test [1] was “significantly improved axonal transport”. The “inhibition of human HDAC7 enzyme activity” value in test [2] is recorded as “did not obviously inhibit”.
